Reference: ChEMBL document CHEMBL3997824, “Synthesis and biological evaluation of potential inhibitors of the cysteine proteases cruzain and rhodesain designed by molecular simplification” (Bioorg Med Chem, 2017)
Activity calls are given as the source filed them. The rule behind the calls is not given here.

Experiments:
[1] = molecular target: Cruzipain (Trypanosoma cruzi) (UniProt P25779); experiment: Inhibition of recombinant Trypanosoma cruzi cruzain at 100 uM using Z-phe-Arg-amidomethylcoumarin as substrate by fluorometric method relative to control
Chain of Cruzipain (Trypanosoma cruzi) (P25779 123-467 limits assumed): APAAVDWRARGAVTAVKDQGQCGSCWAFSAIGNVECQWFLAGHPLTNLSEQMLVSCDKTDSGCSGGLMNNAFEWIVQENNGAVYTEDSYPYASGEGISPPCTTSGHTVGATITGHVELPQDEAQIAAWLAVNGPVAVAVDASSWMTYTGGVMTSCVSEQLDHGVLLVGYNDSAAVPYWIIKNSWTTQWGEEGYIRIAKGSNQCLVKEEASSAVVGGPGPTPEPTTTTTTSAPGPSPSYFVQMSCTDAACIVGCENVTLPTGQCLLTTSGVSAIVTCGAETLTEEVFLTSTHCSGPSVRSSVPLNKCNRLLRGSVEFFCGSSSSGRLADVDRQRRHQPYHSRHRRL

[2] = Selectivity index, ratio of CC50 for mouse L929 cells to IC50 for Trypanosoma cruzi Tulahuen trypomastigote forms infected in mouse L929 cells; format: toxicity, cell-based; settings: read-out: Ratio CC50/IC50
[3] = tested on: Trypanosoma cruzi; experiment: Antitrypanosomal activity against Trypanosoma cruzi Tulahuen trypomastigote forms infected in mouse L929 cells after 96 hrs by chlorophenol red-beta-D-galactopyranoside dye based assay; format: functional, cell-based; settings: L929, 96 h
[4] = Cytotoxicity against mouse L929 cells after 96 hrs by alamar blue assay; format: cell-based
[5] = tested on: Trypanosoma brucei; experiment: Inhibition of recombinant Trypanosoma brucei rhodesain at 100 uM using Z-phe-Arg-amidomethylcoumarin as substrate by fluorometric method relative to control
[6] = tested on: Trypanosoma cruzi; experiment: Antitrypanosomal activity against Trypanosoma cruzi Tulahuen trypomastigote forms infected in mouse L929 cells up to 250 uM after 96 hrs by chlorophenol red-beta-D-galactopyranoside dye based assay; format: functional, cell-based
[7] = Inhibition of recombinant Trypanosoma brucei rhodesain using Z-phe-Arg-amidomethylcoumarin as substrate by fluorometric method
[8] = molecular target: T1, Cruzipain (Trypanosoma cruzi, UniProt P25779); experiment: Inhibition of recombinant Trypanosoma cruzi cruzain using Z-phe-Arg-amidomethylcoumarin as substrate by fluorometric method
T1 sequence (P25779 whole entry): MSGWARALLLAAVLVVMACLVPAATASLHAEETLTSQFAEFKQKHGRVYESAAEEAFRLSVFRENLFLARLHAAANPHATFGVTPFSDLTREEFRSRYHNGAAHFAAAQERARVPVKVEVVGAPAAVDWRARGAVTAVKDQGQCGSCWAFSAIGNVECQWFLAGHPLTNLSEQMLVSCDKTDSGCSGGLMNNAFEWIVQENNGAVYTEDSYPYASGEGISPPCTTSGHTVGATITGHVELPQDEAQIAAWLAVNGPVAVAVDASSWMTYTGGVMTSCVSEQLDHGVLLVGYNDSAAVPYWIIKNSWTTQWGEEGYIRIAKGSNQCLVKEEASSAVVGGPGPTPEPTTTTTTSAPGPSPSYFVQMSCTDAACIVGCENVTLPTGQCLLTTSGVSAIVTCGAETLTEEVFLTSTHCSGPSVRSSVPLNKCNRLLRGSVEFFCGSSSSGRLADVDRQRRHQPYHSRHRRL

[9] = molecular target: Cathepsin S (Homo sapiens) (UniProt P25774); experiment: Inhibition of recombinant human cathepsin S at 1 uM using cbz-val-val-arg-7-amino-4-methylcoumarin as substrate measured for 15 mins by fluorescence assay relative to control
Chain of Cathepsin S (Homo sapiens) (P25774 115-331 limits assumed): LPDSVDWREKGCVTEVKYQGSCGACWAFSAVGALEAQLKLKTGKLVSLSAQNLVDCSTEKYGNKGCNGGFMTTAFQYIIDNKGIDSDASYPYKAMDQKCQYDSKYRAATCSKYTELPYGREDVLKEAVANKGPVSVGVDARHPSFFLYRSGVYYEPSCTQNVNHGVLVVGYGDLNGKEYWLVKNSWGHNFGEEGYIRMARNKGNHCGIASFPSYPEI

[10] = molecular target: Cathepsin B (Rattus norvegicus) (UniProt P00787); experiment: Inhibition of rat cathepsin B at 1 uM using cbz-phe-Arg-amidomethylcoumarin as substrate measured for 15 mins by fluorescence assay relative to control
Chain of Cathepsin B (Rattus norvegicus) (P00787 80-333 limits assumed): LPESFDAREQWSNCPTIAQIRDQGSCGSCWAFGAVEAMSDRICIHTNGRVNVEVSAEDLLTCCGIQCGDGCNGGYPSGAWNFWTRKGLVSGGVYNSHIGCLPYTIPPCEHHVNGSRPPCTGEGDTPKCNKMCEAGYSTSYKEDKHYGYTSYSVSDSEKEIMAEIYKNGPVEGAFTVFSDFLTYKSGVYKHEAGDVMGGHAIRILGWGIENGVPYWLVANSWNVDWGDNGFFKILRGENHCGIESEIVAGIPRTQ

[11] = molecular target: Cathepsin S (Homo sapiens) (UniProt P25774); experiment: Inhibition of recombinant human cathepsin S at 1 uM using cbz-val-val-arg-7-amino-4-methylcoumarin as substrate preincubated for 5 mins followed by substrate addition measured for 15 mins by fluorescence assay relative to control
[12] = molecular target: Cathepsin B (Rattus norvegicus) (UniProt P00787); experiment: Inhibition of rat cathepsin B at 1 uM using cbz-phe-Arg-amidomethylcoumarin as substrate preincubated for 5 mins followed by substrate addition measured for 15 mins by fluorescence assay relative to control
[13] = tested on: Trypanosoma brucei; experiment: Inhibition of recombinant Trypanosoma brucei rhodesain at 100 uM in AcOH/AcONA buffer using Z-phe-Arg-amidomethylcoumarin as substrate by fluorometric method relative to control
[14] = molecular target: Cruzipain (Trypanosoma cruzi) (UniProt P25779); experiment: Inhibition of recombinant Trypanosoma cruzi cruzain at 100 uM in AcOH/AcONA buffer using Z-phe-Arg-amidomethylcoumarin as substrate by fluorometric method relative to control
[15] = molecular target: Cathepsin B (Rattus norvegicus) (UniProt P00787); experiment: Inhibition of rat cathepsin B at 100 uM using cbz-phe-Arg-amidomethylcoumarin as substrate measured for 15 mins by fluorescence assay relative to control
[16] = molecular target: Cathepsin S (Homo sapiens) (UniProt P25774); experiment: Inhibition of recombinant human cathepsin S at 100 uM using cbz-val-val-arg-7-amino-4-methylcoumarin as substrate measured for 15 mins by fluorescence assay relative to control
[17] = molecular target: Cathepsin B (Rattus norvegicus) (UniProt P00787); experiment: Inhibition of rat cathepsin B at 100 uM using cbz-phe-Arg-amidomethylcoumarin as substrate preincubated for 5 mins followed by substrate addition measured for 15 mins by fluorescence assay relative to control
[18] = molecular target: Cathepsin S (Homo sapiens) (UniProt P25774); experiment: Inhibition of recombinant human cathepsin S at 100 uM using cbz-val-val-arg-7-amino-4-methylcoumarin as substrate preincubated for 5 mins followed by substrate addition measured for 15 mins by fluorescence assay relative to control
[19] = Inhibition of recombinant Trypanosoma brucei rhodesain in AcOH/AcONA buffer using Z-phe-Arg-amidomethylcoumarin as substrate by fluorometric method
[20] = molecular target: T1, Cruzipain; experiment: Competitive inhibition of recombinant Trypanosoma cruzi cruzain in presence of varying levels of Z-phe-Arg-amidomethylcoumarin substrate by Lineweaver-Burk plot analysis

SMILES	inhibition [1] [%]	IC50 [3] [µM]	inhibition [5] [%]	selectivity ratio [2]	CC50 at 96 h [4] [µM]	Activity [6]	also measured
Clc1ccc2c(NCCCN3CCCCC3)ccnc2c1	53	38.2	61	1.6	61.5	–	–
O=C(Cn1ccnc1[N+](=O)[O-])NCc1ccccc1 [BENZNIDAZOLE]	–	3.8	–	–	–	–	–
CC(C)C[C@H](NC(=O)[C@@H]1O[C@H]1C(=O)O)C(=O)NCCCCN=C(N)N	–	–	–	–	–	–	inhibition [9]: 100%; inhibition [10]: 99%; inhibition [11]: 100%; inhibition [12]: 100%
O=C(CN1CCc2ccccc2C1)Nc1ccc(Cl)cc1	18.2	64.2	20.5	< 1.9	< 125	–	–
c1ccc(CNCc2cc3ccccc3[nH]2)cc1	9	–	8	–	–	inactive	–
CN1CCN(CC(=O)Nc2ccccc2)CC1	38.6	–	7.4	–	–	inactive	–
NCCCNc1ccnc2cc(Cl)ccc12	–	–	–	–	–	inactive	inhibition [13]: 53%; inhibition [14]: 39%
c1c[nH]c(CN2CCc3ccccc3C2)c1	3.2	–	49.1	–	–	inactive	–
Clc1ccc2[nH]c3c(NCCCN4CCOCC4)ncnc3c2c1	–	–	–	–	–	–	IC50 [8]: 15 µM
Cc1ccc(NC(=O)CN2CCc3ccccc3C2)cc1	15.3	83.3	16.7	1.5	125	–	–
O=C(CNCCCN1CCOCC1)Nc1ccc(Cl)cc1	16.5	–	21	–	–	inactive	–
Clc1ccc2[nH]c(CNC3CCCCC3)cc2c1	8	10.7	4	1.2	12.5	–	–
CN1CCN(Cc2ccc[nH]2)CC1	10.9	–	32.1	–	–	inactive	–
OCCN1CCN(c2ccnc3cc(Cl)ccc23)CC1	–	–	–	–	–	inactive	inhibition [13]: 53%; inhibition [14]: 42.6%
CN1CCN(c2ccncn2)CC1	5	–	13	–	–	inactive	–
Clc1ccc2[nH]c(CNCCCN3CCOCC3)cc2c1	15	38.9	1	1.9	75	–	–
NCCNc1ccnc2cc(Cl)ccc12	–	77.5	–	< 2.5	< 194	–	inhibition [13]: 62%; inhibition [14]: 44%; IC50 [19]: 126 µM
O=C(CN1CCc2ccccc2C1)Nc1ccccc1	7.7	245	19.1	1.5	375	–	–

Further lines, with some results ahead:

inhibition [1] [%]	IC50 [3] [µM]	inhibition [5] [%]	SMILES	selectivity ratio [2]	CC50 at 96 h [4] [µM]	Activity [6]	also measured
56	–	61	Clc1ccc2c(NCCN3CCOCC3)ccnc2c1	–	–	inactive	IC50 [7]: 61 µM; IC50 [8]: 41 µM
2.9	–	7.4	O=C(CNCCCN1CCOCC1)Nc1ccccc1	–	–	inactive	–
43	57.6	56	Clc1ccc2c(NCCN3CCCCC3)ccnc2c1	1.1	64.5	–	–
4	–	7	c1ccc2[nH]c(CNCCCN3CCOCC3)cc2c1	–	–	inactive	–
0	–	15.1	c1c[nH]c(CNCCCN2CCOCC2)c1	–	–	inactive	–
0	–	15.5	Cc1ccc(NC(=O)CN2CCN(C)CC2)cc1	–	–	inactive	–
53	125	49	CCCNc1ccnc2cc(Cl)ccc12	2.3	283	–	–
3.5	–	13.1	Cc1ccc(NC(=O)CNCCCN2CCOCC2)cc1	–	–	inactive	–
28.5	–	22.6	CN1CCN(CC(=O)Nc2ccc(Cl)cc2)CC1	–	–	inactive	–
55	–	61	O=C(CNc1ccnc2cc(Cl)ccc12)N1CCOCC1	–	–	inactive	IC50 [7]: 48 µM
65	37.2	71	Clc1ccc2c(NCc3ccccc3)ccnc2c1	1.2	46.5	–	inhibition [15]: 2%; inhibition [16]: 17%; inhibition [17]: 9%; inhibition [18]: 12%; IC50 [7]: 34.2 µM; IC50 [8]: 44 µM
1	–	5	c1cc(NCCCN2CCOCC2)ncn1	–	–	inactive	–
60	–	61	OCCNc1ccnc2cc(Cl)ccc12	–	–	inactive	IC50 [7]: 58 µM; IC50 [8]: 62 µM
67	–	63	OCCCNc1ccnc2cc(Cl)ccc12	–	–	inactive	inhibition [15]: 8%; inhibition [16]: 14%; inhibition [17]: 5%; inhibition [18]: 4%; IC50 [7]: 72 µM; IC50 [8]: 28 µM
4	25	5	Clc1ccc2[nH]c(CNCc3ccccc3)cc2c1	1.2	31	–	–
23.6	–	66.7	c1c[nH]c(CN2CCOCC2)c1	–	–	inactive	IC50 [7]: 55 µM
6	–	8	c1ccc2[nH]c(CNC3CCCCC3)cc2c1	–	–	inactive	–
15	3.1	20	c1ccc2c(c1)CCN(c1ccncn1)C2	128	400	–	–
88	67.7	51	Clc1ccc2c(NCCCN3CCOCC3)ccnc2c1	1.8	123	–	inhibition [15]: 6%; inhibition [16]: 13%; Ki [20]: 12.1 µM; inhibition [17]: 8%; inhibition [18]: 10%; IC50 [8]: 15 µM
